According to patent US20100168112A1, “2-Substituted and 4-substituted aryl nitrone compounds” (RENOVIS, INC., priority 2004, published 2010):

Tested on: 1K1C rats
Experiment: Kidney ischemia-reperfusion injury, one-kidney one-clip (1K1C) model, fractional excretion of sodium
Assay type: in vivo
Method: Rats were individually housed in a modified cage that was equipped with a raised mesh bottom to separate the fecal product from urine. Before the test, all animals were withheld from food and water overnight. In the morning of the test, normal saline (i.e., 0.9% sodium chloride) was given via oral gavage at […] (Lipschitz, W. L. Hadidian, Z. & Kerpcar, A.: Bioassay of diuretics., J. Pharmacol. Exp. Ther., 79: 97-110, 1943). Samples of blood and urine were collected (standard procedures) at time points (1 and/or 5 hrs after fluid intake) from animals, centrifuged, and kept at 4 degrees until analysis for factors that reflect renal functions. Sodium and creatinine levels were determined by Quality Clinical Labs, Inc. (Mountain View, Calif.). Sodium concentrations were determined by ion selective electrode (standard procedures). Creatinine levels were determined by the alkaline picrated (Jaffe) reaction as described (Liobat-Estelles, M., Sevillano-Cabeja, A. & Campines-Falco, P.: Kinetic chemometric studies of the determination of creatinine using the Jaffe reaction. Part I: kinetics of the reaction; analytical conclusion. Analyst, 11: 597-602, 1989). Fractional excretion of sodium (FENa+), a parameter for ion-handling by the kidney, was calculated, using the following equation: =UNa×Pcr/PNa×Ucr, where UNa is the concentration of sodium in urine; Pcr is the plasma concentration of creatinine; PNa is the […]; and Ucr is the concentration of creatinine in the urine.
After the data for the calculation of basal levels of FENa+ was obtained (Table 16), rats were anesthetized with pentobarbital (65 mg/kg, i.p.). The abdominal region was shaved with a safety razor and sterilized with povidone iodine solution. A midline incision was made and the right kidney was exposed. The right renal pedicle and right urether were both ligated twice with 4-0 sutures and cut between the ligations. The right kidney was then removed. 7 days later, these rats, after another overnight food-water deprivation, were randomly assigned into 3 groups and orally given either Compound 62 (50 mg/kg, at the volume of 1 ml/kg,p.o.) or its vehicle (i.e., 96% of 0.5% CMC and 4 of 20% Tween 80, at the volume of 1 ml/kg, p.o.) 1 hr before kidney ischemia was produced. Positive controls were performed using quercetin (30 mg/kg, i.p.) given 2 hrs before ischemia (Kahraman, A., Erkasap, N., Serteser, M. & Koken, T.: Protective effect of quercetin on renal ischemia/reperfusion injury in rats. J. Nephrol., 16: 219-224, 2003). Animals were then anesthetized and had their left kidneys exposed after opening of their abdominal cavities. A non-traumatic vascular clamp was applied to the left renal pedicle (the ischemia phase), which was released 45 min later (the reperfusion phase). Lipschitz test was then conducted to measure ion-handling capabilities. Normal saline was orally administered at […] as soon as the vascular clamp was released. 60- and 300-min after reperfusion, plasma and urine samples were obtained.

[1] = 1K1C rats, Compound 62 50 mg/kg p.o. 1 hr before ischemia, quercetin 30 mg/kg i.p. 2 hrs before, 45 min ischemia, mean ± SEM

CC(C)(C)/[N+]([O-])=C/c1ccc(S(C)(=O)=O)cc1 [Compound 62, N-tert-Butyl-C-[4-(methanesulfonyl)phenyl]nitrone]
effect on FENa+ compared with the vehicle treatment group (in words) (1K1C rats, 50 mg/kg p.o., acutely dosed): significantly enhanced FENa+ 5-hr after reperfusion | 1-hr post-ischemic FENa+ (%) [1]: 0.52 ± 0.29% | 5-hr post-ischemic FENa+ (%) [1]: 2.52 ± 0.5% | FENa+ (%) pre-surgery (basal) levels (rats before 1K1C modeling, group baseline, mean ± SEM): 1.71 ± 0.36%
